# Laboratory results from patent US20130184272A1, “DIABETES THERAPEUTIC AGENT” (TAKEDA PHARMACEUTICAL COMPANY LIMITED, priority 2010, published 2013).
# Legend:
# C2C12 cells [1] = experiment: Sugar uptake promoting activity in muscle cell (2DG uptake); type: cell-based, Mouse; conditions: for 2DG uptake (%): control group (DMSO) = 100%
# Description: • (1) In the same manner as in Example 1, C2C12 cells were cultured in a growth medium to not less than 90% confluence. • (2) The medium was exchanged with a differentiation medium, and the cells were cultured until observation of myotube formation under a microscope. • (3) The compounds of Reference Example 1 and Reference Example 7 were added, and the cells were cultured overnight. • (4) The cells were washed with krebs-ringer HEPES phosphate buffer added with 1% bovine serum albumin, cultured for 30 min in this buffer, 2-deoxyglucose (2DG) (0.1 mM, 0.8 μCi/250 μL) was added and the cells were cultured at 37° C. for 75 min. • (5) The cells were washed 4 times with PBS, MicroScint-20 (125 μL/well, PerkinElmer) was added and the radioactivity was measured by a scintillation counter. DMSO (dimethyl sulfoxide) alone was added to the control group. The numerical values of 2DG uptake in Table 10 are relative values to the control group as 100%.
# The data in Table 10 show mean±standard deviation at n=6 (n is the number of samples).
# [2] = test system: succinic acid dehydrogenase activity of mitochondria; experiment: Succinic acid dehydrogenase activity in muscle cell; type: cell-based, Mouse; conditions: for succinic acid dehydrogenase activity: two days, control group 100
# Description: (§1) • (1) In the same manner as in Example 1, C2C12 cells were cultured in a growth medium to not less than 90% confluence. • (2) The medium was exchanged with a differentiation medium, and the cells were cultured until observation of myotube formation under a microscope. • (3) The compounds of Reference Example 1 and Reference Example 7 were added, and the cells were cultured for two days. • (4) ATP content was measured using Cell Titer-Glo™ Luminescence cell viable assay (Promega) and succinic acid dehydrogenase activity of mitochondria was measured using Cell Counting Kit-8 (Dojin). The data of Table 17 show mean±standard deviation at n=3-4 (n is the number of samples).
# C2C12 cells [3] = experiment: ATP content in muscle cell; type: cell-based, Mouse; conditions: for ATP content: two days, control group 100
# Description: as §1
# [4] = test system: Male C57BL/6J mice on a high-fat diet; experiment: Antiobesity, dyslipidemia and diabetes improving effect in mouse fed with high-fat diet; type: in vivo; parameters: plasma leptin (mg/dL): unit not given here; conditions: for epididymal fat mass / gastrocnemius muscle weight (g/100 g body weight) / hepatocyte weight / mesenteric fat mass: Day 38
# Description: Male C57BL/6J mice (CLEA Japan, Inc.) were bred from 5-week-old on a high-fat diet (D12451, research diet) while allowing free ingestion of both feed and water to prepare obesity mice. The mice were bred for acclimation for 2 weeks from 21-week-old. The body weight and plasma markers were measured when 23-week-old, the mice were divided into 6 groups (6 per group) such that the values thereof were uniform, and Reference Example 1 (0.01-0.1 mg/kg) or Reference Example 7 (1-3 mg/kg) was orally administered for 5 weeks. After 14 and 28 days, plasma levels of total cholesterol, neutral lipid, glucose, insulin, leptin, adiponectin and glycated hemoglobin were measured. On the last day, the mice were autopsied, and weights of mesenteric fat, epididymal fat, liver and gastrocnemius muscle were measured. The data of Table 18 show mean±standard deviation at n=5-6 (n is the number of samples).
smiles,measurement,setting,value
"Cc1ncccc1Oc1sc(C(N)=O)c2c1-c1c(cnn1C)CC2 [Ref. Ex. 1, 1-methyl-8-[(2-methylpyridin-3-yl)oxy]-4,5-dihydro-1H-thieno[3,4-g]indazole-6-carboxamide]",sugar uptake of C2C12 cell differentiated into muscle cell (in words),C2C12 cells [1],promoted
same,2DG uptake (%),C2C12 cells [1]; compound 0.1 nM overnight,89%
same,2DG uptake (%),C2C12 cells [1]; compound 1 nM overnight,150%
same,2DG uptake (%),C2C12 cells [1]; compound 10 nM overnight,166%
same,2DG uptake (%),C2C12 cells [1]; compound 100 nM overnight,187%
same,succinic acid dehydrogenase activity (in words),[2],increased
same,succinic acid dehydrogenase activity,[2]; compound 0.01 nM,98 ± 10
same,succinic acid dehydrogenase activity,[2]; compound 0.1 nM,113 ± 5
same,succinic acid dehydrogenase activity,[2]; compound 1 nM,124 ± 3
same,ATP content of muscle cells (in words),C2C12 cells [3],did not decrease
same,ATP content,C2C12 cells [3]; compound 0.01 nM,108 ± 1
same,ATP content,C2C12 cells [3]; compound 0.1 nM,107 ± 0
same,ATP content,C2C12 cells [3]; compound 1 nM,112 ± 1
same,average amount of ingestion,[4]; 0.01 mg/kg oral,3.7 ± 0.2 g/day
same,body weight (g) change,[4]; 0.01 mg/kg oral,3.0 ± 1.2 g
same,body weight,"[4]; 0.01 mg/kg oral, Day 0",40.9 ± 2.5 g
same,glycated hemoglobin (%),"[4]; 0.01 mg/kg oral, Day 0",4.5 ± 0.2%
same,plasma adiponectin (μg/dL)),"[4]; 0.01 mg/kg oral, Day 0",15.9 ± 3.4 µg/dL
same,plasma glucose,"[4]; 0.01 mg/kg oral, Day 0",178.1 ± 26.5 mg/dL
same,plasma insulin,"[4]; 0.01 mg/kg oral, Day 0",4.2 ± 2.0 ng/mL
same,plasma leptin (mg/dL),"[4]; 0.01 mg/kg oral, Day 0",54.2 ± 21.0
same,plasma neutral fats,"[4]; 0.01 mg/kg oral, Day 0",73.4 ± 15.1 mg/dL
same,plasma total cholesterol,"[4]; 0.01 mg/kg oral, Day 0",222.1 ± 45.4 mg/dL
same,glycated hemoglobin (%),"[4]; 0.01 mg/kg oral, Day 14",4.0 ± 0.3 %
same,plasma adiponectin (μg/dL)),"[4]; 0.01 mg/kg oral, Day 14",15.5 ± 2.5 µg/dL
same,plasma glucose,"[4]; 0.01 mg/kg oral, Day 14",156.0 ± 23.4 mg/dL
same,plasma insulin,"[4]; 0.01 mg/kg oral, Day 14",6.2 ± 5.8 ng/mL
same,plasma leptin (mg/dL),"[4]; 0.01 mg/kg oral, Day 14",71.2 ± 22.0
same,plasma neutral fats,"[4]; 0.01 mg/kg oral, Day 14",59.4 ± 18.5 mg/dL
same,plasma total cholesterol,"[4]; 0.01 mg/kg oral, Day 14",182.6 ± 19.5 mg/dL
same,glycated hemoglobin (%),"[4]; 0.01 mg/kg oral, Day 28",3.8 ± 0.4%
same,plasma adiponectin (μg/dL)),"[4]; 0.01 mg/kg oral, Day 28",14.7 ± 2.9 µg/dL
same,plasma glucose,"[4]; 0.01 mg/kg oral, Day 28",162.9 ± 24.4 mg/dL
same,plasma insulin,"[4]; 0.01 mg/kg oral, Day 28",5.4 ± 3.9 ng/mL
same,plasma leptin (mg/dL),"[4]; 0.01 mg/kg oral, Day 28",81.8 ± 23.9
same,plasma neutral fats,"[4]; 0.01 mg/kg oral, Day 28",45.5 ± 14.1 mg/dL
same,plasma total cholesterol,"[4]; 0.01 mg/kg oral, Day 28",187.2 ± 15.9 mg/dL
same,body weight,"[4]; 0.01 mg/kg oral, Day 37",44.9 ± 2.6 g
same,epididymal fat mass,[4]; 0.01 mg/kg oral,0.91 ± 0.26 g
same,gastrocnemius muscle weight (g/100 g body weight),[4]; 0.01 mg/kg oral,0.373 ± 0.030 g/100 g body weight
same,hepatocyte weight,[4]; 0.01 mg/kg oral,1.81 ± 0.23 g
same,mesenteric fat mass,[4]; 0.01 mg/kg oral,0.87 ± 0.17 g
same,average amount of ingestion,[4]; 0.03 mg/kg oral,3.2 ± 0.2 g/day
same,body weight (g) change,[4]; 0.03 mg/kg oral,-0.2 ± 0.9 g
same,body weight,"[4]; 0.03 mg/kg oral, Day 0",40.9 ± 2.2 g
same,glycated hemoglobin (%),"[4]; 0.03 mg/kg oral, Day 0",4.5 ± 0.1%
same,plasma adiponectin (μg/dL)),"[4]; 0.03 mg/kg oral, Day 0",18.0 ± 4.0 µg/dL
same,plasma glucose,"[4]; 0.03 mg/kg oral, Day 0",178.5 ± 27.8 mg/dL
same,plasma insulin,"[4]; 0.03 mg/kg oral, Day 0",6.0 ± 3.7 ng/mL
same,plasma leptin (mg/dL),"[4]; 0.03 mg/kg oral, Day 0",70.3 ± 19.6
same,plasma neutral fats,"[4]; 0.03 mg/kg oral, Day 0",72.3 ± 34.0 mg/dL
same,plasma total cholesterol,"[4]; 0.03 mg/kg oral, Day 0",238.2 ± 19.0 mg/dL
same,glycated hemoglobin (%),"[4]; 0.03 mg/kg oral, Day 14",4.1 ± 0.1 %
same,plasma adiponectin (μg/dL)),"[4]; 0.03 mg/kg oral, Day 14",19.5 ± 3.1 µg/dL
same,plasma glucose,"[4]; 0.03 mg/kg oral, Day 14",154.9 ± 12.1 mg/dL
same,plasma insulin,"[4]; 0.03 mg/kg oral, Day 14",3.5 ± 2.1 ng/mL
same,plasma leptin (mg/dL),"[4]; 0.03 mg/kg oral, Day 14",54.7 ± 19.0
same,plasma neutral fats,"[4]; 0.03 mg/kg oral, Day 14",50.9 ± 14.7 mg/dL
same,plasma total cholesterol,"[4]; 0.03 mg/kg oral, Day 14",165.6 ± 11.3 mg/dL
same,glycated hemoglobin (%),"[4]; 0.03 mg/kg oral, Day 28",4.1 ± 0.1%
same,plasma adiponectin (μg/dL)),"[4]; 0.03 mg/kg oral, Day 28",16.4 ± 3.8 µg/dL
same,plasma glucose,"[4]; 0.03 mg/kg oral, Day 28",167.0 ± 20.4 mg/dL
same,plasma insulin,"[4]; 0.03 mg/kg oral, Day 28",2.7 ± 0.8 ng/mL
same,plasma leptin (mg/dL),"[4]; 0.03 mg/kg oral, Day 28",62.4 ± 18.1
same,plasma neutral fats,"[4]; 0.03 mg/kg oral, Day 28",54.4 ± 19.8 mg/dL
same,plasma total cholesterol,"[4]; 0.03 mg/kg oral, Day 28",170.3 ± 13.5 mg/dL
same,body weight,"[4]; 0.03 mg/kg oral, Day 37",41.0 ± 2.3 g
same,epididymal fat mass,[4]; 0.03 mg/kg oral,0.72 ± 0.05 g
same,gastrocnemius muscle weight (g/100 g body weight),[4]; 0.03 mg/kg oral,0.407 ± 0.017 g/100 g body weight
same,hepatocyte weight,[4]; 0.03 mg/kg oral,1.56 ± 0.11 g
same,mesenteric fat mass,[4]; 0.03 mg/kg oral,0.57 ± 0.11 g
same,average amount of ingestion,[4]; 0.1 mg/kg oral,2.7 ± 0.3 g/day
same,body weight (g) change,[4]; 0.1 mg/kg oral,-4.1 ± 0.7 g
same,body weight,"[4]; 0.1 mg/kg oral, Day 0",38.8 ± 3.5 g
same,glycated hemoglobin (%),"[4]; 0.1 mg/kg oral, Day 0",4.5 ± 0.2%
same,plasma adiponectin (μg/dL)),"[4]; 0.1 mg/kg oral, Day 0",16.8 ± 5.7 µg/dL
same,plasma glucose,"[4]; 0.1 mg/kg oral, Day 0",183.9 ± 35.2 mg/dL
same,plasma insulin,"[4]; 0.1 mg/kg oral, Day 0",4.3 ± 1.8 ng/mL
same,plasma leptin (mg/dL),"[4]; 0.1 mg/kg oral, Day 0",55.7 ± 15.4
same,plasma neutral fats,"[4]; 0.1 mg/kg oral, Day 0",63.2 ± 9.1 mg/dL
same,plasma total cholesterol,"[4]; 0.1 mg/kg oral, Day 0",218.2 ± 19.0 mg/dL
same,glycated hemoglobin (%),"[4]; 0.1 mg/kg oral, Day 14",4.0 ± 0.2 %
same,plasma adiponectin (μg/dL)),"[4]; 0.1 mg/kg oral, Day 14",22.8 ± 3.8 µg/dL
same,plasma glucose,"[4]; 0.1 mg/kg oral, Day 14",159.6 ± 26.7 mg/dL
same,plasma insulin,"[4]; 0.1 mg/kg oral, Day 14",1.4 ± 0.6 ng/mL
same,plasma leptin (mg/dL),"[4]; 0.1 mg/kg oral, Day 14",27.4 ± 19.1
same,plasma neutral fats,"[4]; 0.1 mg/kg oral, Day 14",25.2 ± 7.6 mg/dL
same,plasma total cholesterol,"[4]; 0.1 mg/kg oral, Day 14",129.1 ± 15.4 mg/dL
same,glycated hemoglobin (%),"[4]; 0.1 mg/kg oral, Day 28",3.8 ± 0.2 %
same,plasma adiponectin (μg/dL)),"[4]; 0.1 mg/kg oral, Day 28",19.2 ± 2.9 µg/dL
same,plasma glucose,"[4]; 0.1 mg/kg oral, Day 28",138.6 ± 17.3 mg/dL
same,plasma insulin,"[4]; 0.1 mg/kg oral, Day 28",1.4 ± 0.6 ng/mL
same,plasma leptin (mg/dL),"[4]; 0.1 mg/kg oral, Day 28",29.2 ± 20.0
same,plasma neutral fats,"[4]; 0.1 mg/kg oral, Day 28",34.7 ± 12.5 mg/dL
same,plasma total cholesterol,"[4]; 0.1 mg/kg oral, Day 28",135.1 ± 15.4 mg/dL
same,body weight,"[4]; 0.1 mg/kg oral, Day 37",35.6 ± 3.9 g
same,epididymal fat mass,[4]; 0.1 mg/kg oral,0.47 ± 0.10 g
same,gastrocnemius muscle weight (g/100 g body weight),[4]; 0.1 mg/kg oral,0.468 ± 0.033 g/100 g body weight
same,hepatocyte weight,[4]; 0.1 mg/kg oral,1.37 ± 0.24 g
same,mesenteric fat mass,[4]; 0.1 mg/kg oral,0.30 ± 0.08 g
same,body weight (in words),[4]; obese mouse model fed with a high-fat diet,clear body weight decreasing action
